pIC50, pKi: −log10 of the molar value.
Assays:
DP9 = DP9 (Homo sapiens, UniProt Q86TI2); test: DP9 assay; type: biochemical; conditions: for Selectivity DP9(IC50)/DPIV(Ki): ratio IC50 DP9 / Ki DP IV; for pIC50: Gly Pro-AMC 0.25 mM
Experimental: (§1) Determination of IC50 values for DPII and DP9 are done similarly as described for DP IV.
For DP9 Gly Pro-AMC is used as substrate in a final concentration of 0.25 mM.

DPII = DPII (Homo sapiens, UniProt Q9UHL4); test: DPII assay; type: biochemical; conditions: for Selectivity DPII(IC50)/DPIV(Ki): ratio IC50 DPII / Ki DP IV; for pIC50: sodium acetate buffer pH 5.5, Gly-Pro-AMC 1 mM
Experimental: as §1
For DPII instead of the HEPES buffer a 0.2 M sodium acetate buffer pH 5.5 is used. As substrate Gly-Pro-AMC is used in a final concentration of 1 mM.

[1] = biological target: dipeptidyl peptidase (DP IV) (UniProt P27487); test: Determination of IC50 against DP IV (hydrolysis of Gly-Pro-pNA); type: biochemical, porcine kidney or recombinant human; conditions: compounds obtained by preparative synthesis
Experimental: Determination of IC50 Against DP IV
Substances are screened for inhibition of dipeptidyl peptidase (DP IV) by their ability to inhibit the hydrolysis of the DP IV specific substrate Glycyl-Prolyl-4-Nitroanilide (Gly-Pro-pNA). All compounds are diluted in DMSO and IC50 will be determined with 11 serial dilutions (1:2) starting with an final concentration of 100 μM. The final DMSO concentration in the assay is 5% (v/v). The method was automated using a Tecan Genesis Freedom liquid handler and a Genius Pro (Tecan) microplate reader.
A stock solution of 0.102 M HEPES is prepared. Ionic strength (I=0.32) is adjusted by KCl and pH (pH 7.6) by KOH.
2.16 mM solution of Gly-Pro-pNA in deionized water is prepared.
All samples are dissolved in DMSO preparing a 10 mM stock solution.
DP IV from porcine kidney (pDP IV) or recombinant human DP IV (rhDP IV) is diluted in HEPES buffer to a final activity of approximately 40-50 μU*ml^−1. The DP IV is stored in a cooling rack (4° C.) on the liquid handler.
The assay may becarried out at room temperature using Freedom liquid handler connected with a Genios Pro microplate reader. Each sample is measured in duplicate. Each sample stock solution is prediluted with DMSO in a ratio of 1:5 in a polypropylen 96-well plate. From this predilution 10 serial (1:2) dilutions in DMSO are prepared. 13.5 μl of the 11 DMSO dilutions and DMSO alone are transferred to the measurement microplate (duplicates) and 86.5 μl water, 100 μl HEPES buffer and 50 μl substrate solution are added to each well. The enzymatic reaction is started by addition of 20 μl enzyme solution to each well, and then the microplate is immediately transferred to the microplate reader.
After short mixing (20 s) the release of 4-Nitroanilin (pNA) is monitored at 405 nm for 30 cycles (approx. 18 min).
Post assay calculations are done by the Magellan (Tecan) and Graphit Software. The linear slopes are calculated for each well and averaged for the duplicates. The residue activities are calculated in relation to a sample containing only solvent instead of inhibitor and expressed in %. Residue activities are plotted against the log of inhibitor concentrations and IC50 is calculated by an 4-parameter fitting ranging from 0 to 100%.

Caco-2 monolayer = test: Caco-2 transport assay; type: in vitro ADME, human; conditions: assessment of permeability and transport type
Experimental: (§2) The concentration of compounds in the Caco experiments may be determined from their potency to inhibit recombinant human DP IV.
(§3) Reaction is started by addition of 20 μl rhDP IV and release of pNA was monitored at 405 nm. Samples are analyzed in several dilutions (undiluted, 1:10, 1:[…]). Dilutions are done in the Caco assay buffer. Activity measured with Caco-assay buffer alone is set to 100% and inhibitor concentration is calculated from the dilutions resulting in 20 to 80% inhibition according to the equation for competitive inhibition.
(§4) [formula] • I=inhibitor concentration • v0=velocity of the reaction without inhibitor (Caco assay buffer alone) • vi=velocity of the reaction with inhibitor sample • Ki=Ki-value of the compound • DF=dilution factor of the sample Transport Assay
(§5) The human colon adenocarcinome cell line Caco-2 are grown in 6- or 24-transwell microplates (Costar) for 21 days with MEM-alpha containing 10% FBS and 0.5% Gentamycin (Invitrogen). After 21 days of cultivation integrity of the cell layer are assessed by measurement of the transepitelial electrical resistance.
(§6) Transport measurements are carried out in triplicates at a pH of 7.5. For each compound and direction (apical to basal (a-b), basal to apical (b-a)) two separate experiments are done. Samples are collected from the donor and acceptor compartments at the beginning of the experiment and after 60 min (for 6-well plates, Donor at 0 and 120 min, Acceptor at 15, 30, 60 and 120 min).
(§7) Samples are analyzed in several dilutions for their ability to inhibit human recombinant DP IV and compound concentrations may be calculated using the prior determined Ki-value (see above).
(§8) The permeability coefficient Papp is calculated according to the following equation:
(§9) [formula] • VA=Volume of the acceptor compartment • A=Area of the transwell membrane • t=sampling time • cAt=concentration in the acceptor compartment at sampling time • CDO=concentration in the donor compartment at t=0
(§10) Papp-values>1e-5 cm/s are assessed as good permeable, value<1e-6 cm/s as not permeable. Papp-values in between as medium permeable. Compounds where no significant difference were found between a-b and b-a transport are assessed to be passive transported.

Caco-2 transport assay = type: in vitro ADME, human; conditions: human, Caco-2, pH 7.5; for Papp A→B: apical to basal; for Papp B→A: basal to apical
Experimental: as §2, §3, §4, §5, §6, §7, §8, §9, §10

DP IV [2] = biological target: T1, DP IV (Homo sapiens, UniProt P27487); test: DP IV inhibition IC50, parallel-synthesis compounds tested directly following synthesis (without purification); type: biochemical; set-up: IC50 DP4; other: tested directly following parallel synthesis, without purification; compounds of formula (Ib) from parallel synthesis, tested directly following synthesis; conditions: DP IV inhibition; compounds of formula (Ib) from parallel synthesis, tested directly following synthesis (without purification); read-out: IC50
In short: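 IC50 came from a 4-parameter fit of residual activity (linear 405 nm slopes for pNA release over ~18 min, relative to solvent-only wells). Gly-Pro-pNA was the substrate, cleaved by porcine kidney or recombinant human DP IV at room temperature in HEPES with 5% DMSO; duplicate 1:2 series started at 100 μM final.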

[3] = test system: liver cell carcinoma cell line Hep-G2; test: Cytotoxicity screening and LD50 determination on Hep-G2 (LDH, CytoTox-One); type: cell-based; conditions: for Cytotox 100 μM (%) HEPG2 / Viability 100 μM (%) HEP-G2: 24 h; for Cytotox 100 μM (%) HEPG2: LDH activity in cell culture media, lysed untreated cells = 100%; for Viability 100 μM (%) HEP-G2: LDH of lysed cells, untreated control = 100%; for Cytotox 100 μM (%) HEPG2 / Viability 100 μM (%) HEP-G2 / Observed cytotox: 100 μM; for Observed cytotox: Hep-G2, observation of the cells; for LD50 Viability HEP-G2 / LD50 cytotox HEP-G2: 8 serial dilutions, highest concentration 1 mM
In short: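 Hep-G2 cells (50 000/well) precultured 24 h, then compound in DMSO (final 1%) added for 24 h. Screen at 100 μM, 2 μM, 40 nM in triplicate. LDH in medium gave cytotoxicity (untreated 0%, lysed 100%); LDH of lysed cells gave viability. LD50 from 8 serial dilutions, top 1 mM.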

DP IV [4] = biological target: T1, DP IV; test: Ki and inhibition type, DP IV; type: biochemical; conditions: compounds obtained by preparative synthesis
Experimental: Measurement of DP IV activities for Ki determination is carried out as described for IC50. For Ki determination samples were analysed in triplicates. 7 serial dilutions of the inhibitor (range calculated from the IC50 determination) in water are analyzed with 4 serial dilutions of the substrate.
Data are analysed by non-linear regression to the inhibitor equations using Graphit software. Ki-value and inhibition type are determined using the inhibitor equation (competitive, partiell competitive, non-competitive) which gives the best fitting results. […]

[5] = test system: neuroblastoma cell line SY5Y; test: LD50 determination on SY5Y (LDH); type: cell-based; conditions: 8 serial dilutions, highest concentration 1 mM
Experimental: After 24 h of cultivation in a 96 well plate (50 000 cells/well) compounds (dissolved in DMSO) are added and cytotoxicity and vitality of the cells are analysed after another 24 h of cultivation using the CytoTox-One Homogenoeous membrane toxicity assay (Promega).
For cytotoxicity the LDH activity in the cell culture media after 24 h of incubation are analysed. The untreated control is set to 0% cytotoxicity. For the 100% value LDH activity of lysed untreated cells are analysed.
For viability cell culture media are removed from the cells and all cells are lysed using the lysis buffer. LDH activity is determined and untreated control is set to 100% viability.
For determination of LD50 the liver carcinoma cell line HEP-G2 and the neuroblastoma cell line SY5Y may be used. The effect of 8 serial dilutions of the compounds (highest concentration 1 mM) is investigated as described above.

[6] = solubility (dosing solution in saline); type: physicochemical; conditions: compounds were dissolved in saline for dosing
Experimental: The animals were treated by a single oral dose of 3 mg/kg (5 mL/kg b.w.; treatment A) followed by a wash-out period of at least 3 days before intraarterial administration of 3 mg/kg (2 mL/kg b.w.; treatment B). The compounds were dissolved in saline to a final concentration adequate for an application of 3 mg/kg b.w.

DP9, sequence (Q86TI2 whole entry, species assumed): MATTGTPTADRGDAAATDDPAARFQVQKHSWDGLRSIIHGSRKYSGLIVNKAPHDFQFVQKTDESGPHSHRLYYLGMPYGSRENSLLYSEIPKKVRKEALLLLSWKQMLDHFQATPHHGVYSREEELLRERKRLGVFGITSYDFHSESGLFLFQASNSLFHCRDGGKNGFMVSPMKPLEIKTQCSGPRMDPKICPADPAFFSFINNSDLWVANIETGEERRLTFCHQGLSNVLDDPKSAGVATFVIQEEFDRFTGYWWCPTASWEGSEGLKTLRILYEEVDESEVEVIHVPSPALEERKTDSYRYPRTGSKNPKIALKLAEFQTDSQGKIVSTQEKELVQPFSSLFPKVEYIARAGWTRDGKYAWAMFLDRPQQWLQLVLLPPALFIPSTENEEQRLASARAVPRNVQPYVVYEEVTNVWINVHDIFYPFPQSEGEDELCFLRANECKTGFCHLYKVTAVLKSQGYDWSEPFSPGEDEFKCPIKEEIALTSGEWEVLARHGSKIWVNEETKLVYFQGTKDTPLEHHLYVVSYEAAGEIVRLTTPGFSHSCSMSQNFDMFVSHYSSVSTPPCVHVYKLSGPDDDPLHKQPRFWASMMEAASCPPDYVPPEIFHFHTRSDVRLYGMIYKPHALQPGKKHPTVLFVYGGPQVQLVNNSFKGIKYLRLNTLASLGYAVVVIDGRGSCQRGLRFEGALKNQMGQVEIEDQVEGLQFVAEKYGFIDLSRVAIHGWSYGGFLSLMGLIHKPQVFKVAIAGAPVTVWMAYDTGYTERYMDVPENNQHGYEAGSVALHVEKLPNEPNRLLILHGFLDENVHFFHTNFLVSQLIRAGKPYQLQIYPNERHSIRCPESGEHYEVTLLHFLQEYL
T1 sequence (P27487 whole entry): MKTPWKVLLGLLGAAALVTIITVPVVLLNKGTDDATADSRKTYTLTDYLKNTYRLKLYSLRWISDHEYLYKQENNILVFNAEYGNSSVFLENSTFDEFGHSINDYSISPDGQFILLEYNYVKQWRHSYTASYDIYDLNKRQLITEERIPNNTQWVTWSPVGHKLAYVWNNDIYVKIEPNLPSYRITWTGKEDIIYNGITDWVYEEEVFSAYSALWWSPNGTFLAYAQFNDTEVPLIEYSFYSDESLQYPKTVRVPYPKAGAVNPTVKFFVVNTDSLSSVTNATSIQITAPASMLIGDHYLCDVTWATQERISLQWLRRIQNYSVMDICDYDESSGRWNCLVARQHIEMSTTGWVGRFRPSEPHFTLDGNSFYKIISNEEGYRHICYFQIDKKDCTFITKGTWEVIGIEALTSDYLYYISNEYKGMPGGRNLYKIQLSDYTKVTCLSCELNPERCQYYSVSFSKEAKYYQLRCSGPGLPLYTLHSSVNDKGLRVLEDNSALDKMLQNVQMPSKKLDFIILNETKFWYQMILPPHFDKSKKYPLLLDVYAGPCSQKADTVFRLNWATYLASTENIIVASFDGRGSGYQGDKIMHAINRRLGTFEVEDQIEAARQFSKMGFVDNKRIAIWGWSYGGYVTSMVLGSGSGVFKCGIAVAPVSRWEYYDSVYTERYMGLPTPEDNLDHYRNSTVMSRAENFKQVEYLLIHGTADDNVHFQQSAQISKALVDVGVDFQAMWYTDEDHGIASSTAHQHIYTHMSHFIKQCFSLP

Structure (SMILES)	Selectivity DP9(IC50)/DPIV(Ki) (DP9)	Selectivity DPII(IC50)/DPIV(Ki) (DPII)	pIC50 (DPII)	pIC50 [1]	Transport (Caco-2 monolayer)	Papp A→B (Caco-2 transport assay)	Papp B→A (Caco-2 transport assay)	pIC50 (DP IV [2])	Cytotox 100 μM (%) HEPG2 [3]	Viability 100 μM (%) HEP-G2 [3]	Observed cytotox [3]	pKi (DP IV [4])	pKi (DP9)	pIC50 (DP9)	pKi (DPII)	LD50 Viability SY5Y [5]	LD50 cytotox SY5Y [5]	LD50 Viability HEP-G2 [3]	LD50 cytotox HEP-G2 [3]	solubility [6]
COc1cccc(Cn2cnc(-c3ccc(Cl)cc3Cl)c2CN)c1 [Example 59b, C-[5-(2,4-dichloro-phenyl)-3-(3-methoxy-benzyl)-3H-imidazol-4-yl]-methylamine]	7,974	2,542	4.41	6.66	good, passive	49.7 ×10⁻⁶ cm/s	38.3 ×10⁻⁶ cm/s	5.43	1.2%	116.3%	10% spheric	7.82	–	–	–	–	–	–	–	–
NCc1c(-c2ccc(Cl)cc2Cl)ncn1Cc1ccccc1Cl [Example 81b, C-[3-(2-chloro-benzyl)-5-(2,4-dichloro-phenyl)-3H-imidazol-4-yl]-methylamine]	1,964	383	5.13	6.86	good, active in	41.9 ×10⁻⁶ cm/s	16 ×10⁻⁶ cm/s	6.00	–	–	–	7.71	5.12	4.42	5.66	0.07 mM	0.16 mM	0.14 mM	0.12 mM	–
NCc1c(-c2ccc(Cl)cc2Cl)ncn1Cc1ccccc1F [Example 112b, C-[5-(2,4-dichloro-phenyl)-3-(2-fluoro-benzyl)-3H-imidazol-4-yl]-methylamine]	9,714	3,514	4.43	6.71	good, passive	44.8 ×10⁻⁶ cm/s	42.1 ×10⁻⁶ cm/s	5.43	3.0%	111.4%	–	7.98	–	–	–	–	–	–	–	–
COc1ccccc1Cn1cnc(-c2ccc(Cl)cc2Cl)c1CN [Example 120b, C-[5-(2,4-dichloro-phenyl)-3-(2-methoxy-benzyl)-3H-imidazol-4-yl]-methylamine]	3,778	1,177	4.73	6.58	good, passive	51.2 ×10⁻⁶ cm/s	52.8 ×10⁻⁶ cm/s	5.72	11.6%	108.9%	50% spheric	7.80	–	4.22	–	0.10 mM	0.16 mM	0.21 mM	0.17 mM	–
CCOc1ccccc1Cn1cnc(-c2ccc(Cl)cc2Cl)c1CN [Example 128b, (1-(2-ethoxybenzyl)-4-(2,4-dichlorophenyl)-1H-imidazol-5-yl)methanamine]	5,419	540	5.47	7.27	good, active in	45.1 ×10⁻⁶ cm/s	15 ×10⁻⁶ cm/s	–	–	–	–	8.20	–	4.46	5.80	0.07 mM	0.15 mM	0.15 mM	0.14 mM	low solubility

Source: patent publication US7728146B2, “Enzyme inhibitors” (Probiodrug AG, priority 2006, dated 2010)
